Results published in patent US10532041B2, “Formulation comprising glycopyrrolate, method and apparatus” (Vectura Limited, priority 2014, dated 2020).

Key:
[1] = Particle size distribution, MALVERN MASTERSIZER 3000, Hydro MV wet dispersion (wet analysis); format: physicochemical; details: wet analysis method; starting material before milling
Protocol: The particle size distribution for the micronized glycopyrrolate formulations was determined by MALVERN MASTERSIZER® 3000 using the Hydro MV wet dispersion unit as follows: the dispersion unit was filled with iso-octane (2,2,4-trimethylpentane). The pump speed was set to 3000 rpm. Ten millilitres of 0.1% lecithin in iso-octane was added to approximately 10 mg of the micronized glycopyrrolate formulation, this pre-dispersion was then sonicated for 3 minutes using a Sonopuls sonic probe at 50% intensity. The dispersed particles were added to the dispersion unit to reach an obscuration of 5-15%. The optical properties used included a refractive index of 1.52 and an absorption value of 1.0 for the glycopyrrolate, and a refractive index of 1.45 and an absorption value of 1.0 for the magnesium stearate and a refractive index of 1.391 for the iso-octane. Six replicates were performed per measurement.

[2] = Particle size distribution, MALVERN MASTERSIZER 3000, Aero S dry dispersion method at 4 Bar; format: physicochemical; details: unmicronised source powder
Protocol: The particle size distribution for unmicronised glycopyrrolate was determined by MALVERN MASTERSIZER analysis (MALVERN MASTERSIZER® 3000, using the Aero S dry dispersion method at 4 Bar) and found to be D10=11.3 μm, D50=98.0 μm, D90=281 μm (see FIG. 1).
The particle size distributions for Formulation 1 (D10=0.283 μm, D50=1.66 μm, D90=5.40 μm) and Formulation 2 (D10=0.270 μm, D50=1.41 μm, D90=3.66 μm were determined by MALVERN MASTERSIZER® analysis (MALVERN MASTERSIZER® 3000, using the Aero S dry dispersion method at 4 Bar). These are reported in FIGS. 4 and 8 respectively and Table 1 below.
The particle size distribution for the micronized glycopyrrolate formulations was determined by MALVERN MASTERSIZER® analysis (MALVERN MASTERSIZER® 3000, using the Aero S dry dispersion method at 4 Bar and a feed rate of between 30-40%). The optical properties used included a refractive index of 1.52 and an absorption value of 1.0.

| D10 [2] [μm] | D50 [2] [μm] | D90 [2] [μm] | cumulative fraction under 5 μm ([2]; stored sealed) [%] | Molecule | D10 [1] [μm] | D50 [1] [μm] | D90 [1] [μm] |
| --- | --- | --- | --- | --- | --- | --- | --- |
| 11.3 | 98.0 | 281 | 4.68 | C[N+]1(C)CCC(OC(=O)C(O)(c2ccccc2)C2CCCC2)C1 (stereo not shown) [unmicronised glycopyrrolate, glycopyrrolate] | 20.6 | 148.7 | 409.7 |
|  |  |  |  | magnesium stearate | 2.8 | 8.8 | 27.4 |
